Source: patent publication US20110039763A1, “TARGETED ANTIMICROBIAL MOIETIES” (C3 JIAN, INC., priority 2009, published 2011)

Tests used:
microorganisms [1] = assay: Morphology, biofilm and growth disrupting peptides (Table 5); assay type: cell-based; design: key: A: Peptide aggregates; B: Less hyphal formation; Clumps; Diffuse clumps and small polyps; F: Diffuse growth; H: Thin; I: Growth inhibition; Microcolony formation; Rippled; Small polyps; Thick; W: Halo formation on top, microlonies on bottom
Text: In certain embodiments peptides that induce alterations in phenotype or other biological activities can also be used as antimicrobial effector moieties.

microorganisms [2] = assay: Targeting peptide binding to target microorganisms (Tables 3, 10, 12); details: microorganism(s) the targeting peptide binds; binding in aqueous buffers varied with peptide solubility, preferably 1x PBS

PF-647 (chain 1 GTFLGQKCAAATAS; chain 2 GTFLGQKCAAATAS; Peptide with targeting and/or antimicrobial activity)
Organism, effect (microorganisms [1]; C. albicans): C. albicans (B)
Organism, effect (microorganisms [1]; S. pneumoniae): S. pneumoniae (R)
Target(s) (microorganisms [2]): Mycobacteria spp

PF-649 (chain 1 CPRYPFVDVGPAGPWRARWRVGS; chain 2 CPRYPFVDVGPAGPWRARWRVGS; Peptide with targeting and/or antimicrobial activity)
Organism, effect (microorganisms [1]; E. faecalis): E. faecalis (R)
Target(s) (microorganisms [2]): Mycobacteria spp

PF-651 (chain 1 PRWPTGAGRHR; chain 2 PRWPTGAGRHR; Peptide with targeting and/or antimicrobial activity)
Organism, effect (microorganisms [1]; S. pneumoniae): S. pneumoniae (H)
Target(s) (microorganisms [2]): Mycobacteria spp

PF-652 (chain 1 FLAPARPDLQAQRQALAQ; chain 2 FLAPARPDLQAQRQALAQ; Peptide with targeting and/or antimicrobial activity)
Organism, effect (microorganisms [1]; S. pneumoniae): S. pneumoniae (A)
Target(s) (microorganisms [2]): Mycobacteria spp

PF-653 (chain 1 QSVHPLPAETPVADVI; chain 2 QSVHPLPAETPVADVI; Peptide with targeting and/or antimicrobial activity)
Organism, effect (microorganisms [1]; S. pneumoniae): S. pneumoniae (H)
Target(s) (microorganisms [2]): Mycobacteria spp

PF-654 (chain 1 LSGRLAGRR; chain 2 LSGRLAGRR; Peptide with targeting and/or antimicrobial activity)
Organism, effect (microorganisms [1]; C. albicans): C. albicans (B)
Organism, effect (microorganisms [1]; MRSA): MRSA (R)
Organism, effect (microorganisms [1]; S. pneumoniae): S. pneumoniae (A)
Target(s) (microorganisms [2]): Mycobacteria spp

PF-656 (chain 1 RGMFVPFHDVDCVQ; chain 2 RGMFVPFHDVDCVQ; Peptide with targeting and/or antimicrobial activity)
Organism, effect (microorganisms [1]; MRSA): MRSA (R)
Target(s) (microorganisms [2]): Mycobacteria spp

PF-657 (chain 1 YVANYTITQFGRDFDDRLAVAIHFA; chain 2 YVANYTITQFGRDFDDRLAVAIHFA; Peptide with targeting and/or antimicrobial activity)
Organism, effect (microorganisms [1]; C. jeikeium): C. jeikeium (D)
Organism, effect (microorganisms [1]; E. faecalis): E. faecalis (D)
Organism, effect (microorganisms [1]; MRSA): MRSA (D)
Organism, effect (microorganisms [1]; S. epidermidis): S. epidermidis (C)
Organism, effect (microorganisms [1]; S. pneumoniae): S. pneumoniae (H)
Target(s) (microorganisms [2]): Mycobacteria spp

PF-658 (chain 1 PTTPPPTTPPEIPTGGTVIST; chain 2 PTTPPPTTPPEIPTGGTVIST; Peptide with targeting and/or antimicrobial activity)
Organism, effect (microorganisms [1]; MRSA): MRSA (R)
Organism, effect (microorganisms [1]; S. pneumoniae): S. pneumoniae (H)
Target(s) (microorganisms [2]): Mycobacteria spp

PF-659 (chain 1 TVIST; chain 2 TVIST; Peptide with targeting and/or antimicrobial activity)
Organism, effect (microorganisms [1]; B. subtilis): B. subtilis (H)
Organism, effect (microorganisms [1]; MRSA): MRSA (R)
Organism, effect (microorganisms [1]; S. epidermidis): S. epidermidis (M)
Organism, effect (microorganisms [1]; S. pneumoniae): S. pneumoniae (C)
Target(s) (microorganisms [2]): Mycobacteria spp

PF-660 (chain 1 TDPQATAAPRRRTSPR; chain 2 TDPQATAAPRRRTSPR; Peptide with targeting and/or antimicrobial activity)
Organism, effect (microorganisms [1]; S. pneumoniae): S. pneumoniae (H)
Target(s) (microorganisms [2]): Mycobacteria spp

PF-661 (chain 1 PDEDIRRRAILPPAGPCRPMSPE; chain 2 PDEDIRRRAILPPAGPCRPMSPE; Peptide with targeting and/or antimicrobial activity)
Organism, effect (microorganisms [1]; MRSA): MRSA (R)
Target(s) (microorganisms [2]): Mycobacteria spp

PF-662 (chain 1 GKQSRAHGPVASRREFRRKSG; chain 2 GKQSRAHGPVASRREFRRKSG; Peptide with targeting and/or antimicrobial activity)
Organism, effect (microorganisms [1]; S. pneumoniae): S. pneumoniae (A)
Target(s) (microorganisms [2]): Mycobacteria spp

PF-663 (chain 1 ATLIPRKA; chain 2 ATLIPRKA; Peptide with targeting and/or antimicrobial activity)
Organism, effect (microorganisms [1]; S. pneumoniae): S. pneumoniae (A)
Target(s) (microorganisms [2]): Mycobacteria spp

PF-665 (chain 1 VLRVATAVGEVPTGL; chain 2 VLRVATAVGEVPTGL; Peptide with targeting and/or antimicrobial activity)
Organism, effect (microorganisms [1]; S. pneumoniae): S. pneumoniae (H)
Target(s) (microorganisms [2]): Mycobacteria spp

PF-666 (chain 1 PNRRSRPR; chain 2 PNRRSRPR; Peptide with targeting and/or antimicrobial activity)
Organism, effect (microorganisms [1]; S. pneumoniae): S. pneumoniae (A)
Target(s) (microorganisms [2]): Mycobacteria spp

PF-667 (chain 1 PAHQRLRIDQRLVADRDMVQDYES; chain 2 PAHQRLRIDQRLVADRDMVQDYES; Peptide with targeting and/or antimicrobial activity)
Organism, effect (microorganisms [1]; E. faecalis): E. faecalis (R)
Organism, effect (microorganisms [1]; MRSA): MRSA (R)
Organism, effect (microorganisms [1]; S. epidermidis): S. epidermidis (R)
Organism, effect (microorganisms [1]; S. pneumoniae): S. pneumoniae (R)
Target(s) (microorganisms [2]): Mycobacteria spp

PF-668 (chain 1 TNAESMALAFRGRVHMSVNIAGLT; chain 2 TNAESMALAFRGRVHMSVNIAGLT; Peptide with targeting and/or antimicrobial activity)
Organism, effect (microorganisms [1]; B. subtilis): B. subtilis (A)
Organism, effect (microorganisms [1]; C. albicans): C. albicans (A)
Organism, effect (microorganisms [1]; C. jeikeium): C. jeikeium (D)
Organism, effect (microorganisms [1]; E. faecalis): E. faecalis (D)
Organism, effect (microorganisms [1]; MRSA): MRSA (R)
Organism, effect (microorganisms [1]; S. epidermidis): S. epidermidis (M)
Organism, effect (microorganisms [1]; S. pneumoniae): S. pneumoniae (M)
Target(s) (microorganisms [2]): Mycobacteria spp

PF-675 (EIIPISPTRRCEMHTMSSAEYRGL; Peptide with targeting and/or antimicrobial activity)
Organism, effect (microorganisms [1]; E. faecalis): E. faecalis (R)
Organism, effect (microorganisms [1]; S. pneumoniae): S. pneumoniae (C)
Target(s) (microorganisms [2]): Mycobacteria spp

PF-677 (TCRGAGMH; Peptide with targeting and/or antimicrobial activity)
Organism, effect (microorganisms [1]; E. faecalis): E. faecalis (R)
Organism, effect (microorganisms [1]; MRSA): MRSA (D)
Organism, effect (microorganisms [1]; S. epidermidis): S. epidermidis (R)
Organism, effect (microorganisms [1]; S. pneumoniae): S. pneumoniae (D)
Target(s) (microorganisms [2]): Mycobacteria spp

PF-680 (ADPHPTTGI; Peptide with targeting and/or antimicrobial activity)
Organism, effect (microorganisms [1]; MRSA): MRSA (R)
Target(s) (microorganisms [2]): Mycobacteria spp

PF-682 (RRGKSEQGLSRR; Peptide with targeting and/or antimicrobial activity)
Organism, effect (microorganisms [1]; S. pneumoniae): S. pneumoniae (A)
Target(s) (microorganisms [2]): Mycobacteria spp

PF-683 (LWPVA; Peptide with targeting and/or antimicrobial activity)
Organism, effect (microorganisms [1]; MRSA): MRSA (R)
Organism, effect (microorganisms [1]; S. epidermidis): S. epidermidis (R)
Organism, effect (microorganisms [1]; S. pneumoniae): S. pneumoniae (H)
Target(s) (microorganisms [2]): Mycobacteria spp

PF-684 (RKLSLASGFALWRRSLV; Peptide with targeting and/or antimicrobial activity)
Organism, effect (microorganisms [1]; C. albicans): C. albicans (B)
Organism, effect (microorganisms [1]; E. faecalis): E. faecalis (A)
Organism, effect (microorganisms [1]; S. pneumoniae): S. pneumoniae (C)
Target(s) (microorganisms [2]): Mycobacteria spp

PF-685 (PTLWLACL; Peptide with targeting and/or antimicrobial activity)
Organism, effect (microorganisms [1]; C. jeikeium): C. jeikeium (R)
Organism, effect (microorganisms [1]; E. faecalis): E. faecalis (R)
Organism, effect (microorganisms [1]; MRSA): MRSA (M)
Organism, effect (microorganisms [1]; S. epidermidis): S. epidermidis (M)
Organism, effect (microorganisms [1]; S. pneumoniae): S. pneumoniae (M)
Target(s) (microorganisms [2]): Mycobacteria spp

PF-687 (AKRVLSLAVAPHRRQPVQGT; Peptide with targeting and/or antimicrobial activity)
Organism, effect (microorganisms [1]; S. pneumoniae): S. pneumoniae (A)
Target(s) (microorganisms [2]): Mycobacteria spp

PF-688 (ARNHAVIPAG; Peptide with targeting and/or antimicrobial activity)
Organism, effect (microorganisms [1]; S. pneumoniae): S. pneumoniae (A)
Target(s) (microorganisms [2]): Mycobacteria spp

PF-690 (MIPLAGDPVSSHRTVEFGVLGTYLVSGGSL; Peptide with targeting and/or antimicrobial activity)
Organism, effect (microorganisms [1]; E. faecalis): E. faecalis (R)
Organism, effect (microorganisms [1]; MRSA): MRSA (R)
Organism, effect (microorganisms [1]; S. epidermidis): S. epidermidis (R)
Organism, effect (microorganisms [1]; S. pneumoniae): S. pneumoniae (M)
Target(s) (microorganisms [2]): Mycobacteria spp

PF-691 (HRTVEFGVLGTYLVSGGSL; Peptide with targeting and/or antimicrobial activity)
Organism, effect (microorganisms [1]; S. pneumoniae): S. pneumoniae (R)
Target(s) (microorganisms [2]): Mycobacteria spp

PF-692 (GVAREDPLEPDPLAPIIDDSR; Peptide with targeting and/or antimicrobial activity)
Organism, effect (microorganisms [1]; MRSA): MRSA (R)
Target(s) (microorganisms [2]): Mycobacteria spp

PF-693 (PDPAR; Peptide with targeting and/or antimicrobial activity)
Organism, effect (microorganisms [1]; S. pneumoniae): S. pneumoniae (A)
Target(s) (microorganisms [2]): Mycobacteria spp

PF-694 (DLIRPLYSMSAPSVA; Peptide with targeting and/or antimicrobial activity)
Organism, effect (microorganisms [1]; MRSA): MRSA (R)
Organism, effect (microorganisms [1]; S. pneumoniae): S. pneumoniae (A)
Target(s) (microorganisms [2]): Mycobacteria spp

PF-695 (ALSVMLGNIPLVVPNANQL; Peptide with targeting and/or antimicrobial activity)
Organism, effect (microorganisms [1]; E. faecalis): E. faecalis (R)
Organism, effect (microorganisms [1]; MRSA): MRSA (R)
Organism, effect (microorganisms [1]; S. pneumoniae): S. pneumoniae (C)
Target(s) (microorganisms [2]): Mycobacteria spp

PF-696 (IRSGISAAYARPLR; Peptide with targeting and/or antimicrobial activity)
Organism, effect (microorganisms [1]; S. pneumoniae): S. pneumoniae (H)
Target(s) (microorganisms [2]): Mycobacteria spp

PF-697 (RADARAK; Peptide with targeting and/or antimicrobial activity)
Organism, effect (microorganisms [1]; C. albicans): C. albicans (H)
Organism, effect (microorganisms [1]; S. pneumoniae): S. pneumoniae (H)
Target(s) (microorganisms [2]): Mycobacteria spp

PF-698 (SSGRAGVKCRRPTGR; Peptide with targeting and/or antimicrobial activity)
Organism, effect (microorganisms [1]; C. albicans): C. albicans (H)
Organism, effect (microorganisms [1]; E. faecalis): E. faecalis (A)
Organism, effect (microorganisms [1]; S. pneumoniae): S. pneumoniae (A)
Target(s) (microorganisms [2]): Mycobacteria spp
